{"source": "paper PMC8111401", "about": "(Frontiers in Pharmacology, 2021)", "key": {"radiation pneumonitis": {"test_system": "radiation pneumonitis", "parameters": "method as in Gao et al., 2013", "conditions": "delivered as late as 35 days after radiation; ref Gao et al., 2013; cited from earlier work"}, "[1]": {"test": "Lisinopril excreted in 24 h urine, measured by LC-MS/MS", "type": "in vivo, WAG/RijCmcr rats", "description": "Urine was collected in a Nalgene rat metabolic cage. A rat was placed in the metabolic cage with access to food and water for 24 h. After 24 h urine volume was recorded, and an aliquot was frozen and stored at −80°C for LC-MS analyses.\nPlasma was measured 1–4 times in each animal, at 0, 0.5, 1, 1.5, 2, 2.5, 3, 4, 5, 6, 8, 24 or 48 h after oral gavage, and 5 min, 1.5 and 24 h after intravenous injection.\nAliquots (0.1 ml) of rat plasma or urine were extracted with ∼3 volumes of cold acidified methanol spiked with enalaprilat as an internal standard (0.3 ml of methanol, 20 µL of 0.1 M HCl and 3 µL of 0.1 mM enalaprilat), mixed well and allowed to stand for 5 min before centrifugation at 14,000 rpm for 5 min at 4°C. The supernatant was passed through a Phree phospholipid removal plate (Phenomenex) and the eluate dried completely under a flux of air and reconstituted with 120 µL of LC-MS mobile phase (5% acetonitrile, 95% water, 0.1% formic acid), spiked with 1 µM of lisinopril-d5 used as a second internal standard. […] Samples were injected into C18 reversed phase column (Waters Cortecs UPLC C18 2.1 mm × 50 mm, 1.6 µm) thermostated at 40°C and equilibrated with 0.1% formic acid in water:acetonitrile (95:5). Compounds were eluted by increasing the concentration of acetonitrile in the mobile phase from 5 to 40% over 2.5 min at the flow rate of 0.5 ml/min."}, "[2]": {"conditions": "control (nonirradiated) rats; base parameter estimate, two-compartment model", "from_the_text": "(§1) WAG/RijCmcr female rats were irradiated without the use of anesthetics at 11–12 weeks of age weighing ∼155 g. All irradiations were done between 8–11 am. For leg-out PBI, non-anesthetized rats were immobilized in a plastic jig and irradiated using a XRAD-320 orthovoltage x-ray system (Precision X-Ray, North Branford, Connecticut). […] During the irradiation, each rat was confined in a chamber which allows irradiation of two rats simultaneously. One hind limb of each rat was carefully externalized from the chamber and shielded with a 0.25-inch lead block. The dose to this leg was 2 Gy. The dual-chambered jig was placed on a plane perpendicular to the beam direction, with distance from source to the midline of rats set at 61 cm. […] The irradiation field at midline was large enough to cover both chambers with adequate (at least 2 cm) margins. Supportive care was provided to rats receiving 13 Gy. Supportive care consisted of delivery of the antibiotic Enrofloxacin (10 mg/kg/day) from days 1–14 in the drinking water, and hydration by daily subcutaneous injection of saline (40 ml/kg/day) from days 3–7, post-irradiation.\n(§2) Aliquots (0.1 ml) of rat plasma or urine were extracted with ∼3 volumes of cold acidified methanol spiked with enalaprilat as an internal standard (0.3 ml of methanol, 20 µL of 0.1 M HCl and 3 µL of 0.1 mM enalaprilat), mixed well and allowed to stand for 5 min before centrifugation at 14,000 rpm for 5 min at 4°C. […] Samples were injected into C18 reversed phase column (Waters Cortecs UPLC C18 2.1 mm × 50 mm, 1.6 µm) thermostated at 40°C and equilibrated with 0.1% formic acid in water:acetonitrile (95:5).\n(§3) Pharmacokinetic (PK) modeling was performed on the data to measure distribution of the drug in different tissues (compartments). The two compartments fitted with observed data were the central compartment (plasma) and the peripheral compartment (internal tissues such as lungs, liver, kidneys, etc.). Administration by gavage was modeled using the gut as a depot to include bioavailability (F) and absorption (k a) from the gut (Figure 1). […] Clearance out of the system was modeled by Cl, the renal clearance rate via urine (Figure 1). The model was fitted using the open-source R package Nonlinear Mixed-Effects Model Development and Simulation (nlmixr) along with related R packages.\n(§4) An additive error with compartment-specific variance was assumed for the plasma, peripheral, and urine compartments. Multiple measurements from the same animal were linked via a log-normally distributed multiplicative random effect on the compartment volumes V 2 and V 3.\n(§5) The observed measurements are the concentration in plasma, Cplasma and the (cumulative) amount in the urine, Yurine .\n(§6) The model was fitted to the plasma and urine data, the accumulation in the peripheral compartment was inferred from the model."}, "[3]": {"parameters": "method as in Beermann 1988", "conditions": "humans; ref Beermann 1988; cited from earlier work"}, "in vivo [4]": {"test": "in vivo", "conditions": "female, WAG/RijCmcr, rat, plasma, urine", "from_the_text": "as §1, §2, §3, §4, §5, §6"}, "in vivo [5]": {"test": "in vivo", "conditions": "female, WAG/RijCmcr, rat, plasma, po"}}, "note": "Where two headings read alike, the source gives them in different places.", "data": [{"smiles": "CCOC(=O)[C@H](CCc1ccccc1)N[C@@H](C)C(=O)N1CCC[C@H]1C(=O)O", "note": "[enalapril]", "values": [{"measurement": "Efficacy to mitigate radiation pneumonitis", "setting": "radiation pneumonitis", "value": "had efficacy to mitigate radiation pneumonitis"}]}, {"smiles": "NCCCC[C@H](N[C@@H](CCc1ccccc1)C(=O)O)C(=O)N1CCC[C@H]1C(=O)O", "note": "[lisinopril]", "values": [{"measurement": "Measured lisinopril excreted in urine per 300 µg administered, geometric mean", "setting": "[1]; IV, no radiation", "value": 0.46, "unit": "µmol"}, {"measurement": "Measured lisinopril excreted in urine per 300 µg administered, geometric mean", "setting": "[1]; IV, radiation", "value": 0.37, "unit": "µmol"}, {"measurement": "Measured lisinopril excreted in urine per 300 µg administered, geometric mean", "setting": "[1]; gavage, no radiation", "value": 0.072, "unit": "µmol"}, {"measurement": "Measured lisinopril excreted in urine per 300 µg administered, geometric mean", "setting": "[1]; gavage, radiation", "value": 0.11, "unit": "µmol"}, {"measurement": "Central volume", "setting": "[2]", "value": 0.008, "unit": "L"}, {"measurement": "Peripheral volume (lung)", "setting": "[2]", "value": 0.513, "unit": "L"}, {"measurement": "Inter-individual variation", "setting": "irradiated rats, 90 min after IV injection", "value": 1.8, "unit": "fold"}, {"measurement": "Inter-individual variation", "setting": "irradiated rats, 90 min after oral gavage (data not shown)", "value": 2.7, "unit": "fold"}, {"measurement": "Inter-individual variation", "setting": "non-irradiated rats, 90 min after oral gavage (data not shown)", "value": 1.6, "unit": "fold"}, {"measurement": "Inter-individual variation", "setting": "nonirradiated rats injected with lisinopril (result not shown)", "value": "3-4 fold"}, {"measurement": "Half-life of prolonged terminal phase", "setting": "[3]", "value": 46.7, "unit": "h"}, {"measurement": "Time of peak serum levels", "setting": "[3]", "value": "6 to 8", "unit": "h"}, {"measurement": "CL renal", "setting": "in vivo [4]", "value": 0.15, "unit": "mL/min"}, {"measurement": "half-life", "setting": "in vivo [4]; Model-based circulating half-life, irradiated rats", "value": 2.5, "unit": "h"}, {"measurement": "half-life", "setting": "in vivo [4]; Model-based circulating half-life, non-irradiated rats", "value": 2.8, "unit": "h"}, {"measurement": "half-life", "setting": "in vivo [4]; Model-based estimate of terminal half-life, irradiated rats", "value": 83, "unit": "h"}, {"measurement": "half-life", "setting": "in vivo [4]; Model-based estimate of terminal half-life, nonirradiated rats", "value": 65, "unit": "h"}, {"measurement": "bioavailability", "setting": "in vivo [4]; oral", "value": 25.4, "unit": "%"}, {"measurement": "bioavailability", "setting": "in vivo [4]; po", "value": 19.2, "unit": "%"}, {"measurement": "Tmax", "setting": "in vivo [5]", "value": "2 to 3", "unit": "h"}]}]}
